Measurements taken from publication PMC3617406 (Molecular pharmaceutics, 2013).
Entries after “also recorded” stand apart in the source; their conditions may differ.

How the values were obtained:
human NTCP [1] = biological target: T1, human NTCP (Homo sapiens, UniProt Q14973); assay type: cell-based
T1 sequence (Q14973 1-349): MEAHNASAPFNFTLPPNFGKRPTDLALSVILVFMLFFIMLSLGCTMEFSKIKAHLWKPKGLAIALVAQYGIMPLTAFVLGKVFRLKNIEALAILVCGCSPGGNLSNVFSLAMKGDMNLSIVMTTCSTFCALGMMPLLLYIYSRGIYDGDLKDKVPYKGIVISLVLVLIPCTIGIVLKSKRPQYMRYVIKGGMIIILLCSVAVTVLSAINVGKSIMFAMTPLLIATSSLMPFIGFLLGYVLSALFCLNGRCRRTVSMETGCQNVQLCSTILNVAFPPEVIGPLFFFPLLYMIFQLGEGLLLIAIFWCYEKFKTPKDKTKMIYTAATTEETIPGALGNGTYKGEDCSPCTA

human ASBT = biological target: T2, human ASBT (Homo sapiens, UniProt Q12908); assay type: cell-based; conditions: for ASBT inhibitor or non-inhibitor: inhibitor = Ki below 300 μM; for potency estimated from few doses: read-out: Estimated Ki for ASBT; for taurocholate uptake into ASBT-MDCK cells, percent of control: single drug concentration, same as in NTCP screening (typically 100 μM)
T2 sequence (Q12908 1-348): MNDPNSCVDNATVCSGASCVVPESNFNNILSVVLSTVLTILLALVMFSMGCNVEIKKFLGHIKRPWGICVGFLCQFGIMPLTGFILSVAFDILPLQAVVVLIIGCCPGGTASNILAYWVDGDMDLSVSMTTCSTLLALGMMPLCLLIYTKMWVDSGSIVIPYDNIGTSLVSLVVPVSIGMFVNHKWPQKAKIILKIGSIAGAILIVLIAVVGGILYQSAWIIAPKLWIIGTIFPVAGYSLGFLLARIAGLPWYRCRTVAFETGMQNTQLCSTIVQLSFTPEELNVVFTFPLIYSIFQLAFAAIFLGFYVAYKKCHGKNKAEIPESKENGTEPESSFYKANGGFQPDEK

human NTCP [2] = biological target: T1, human NTCP; assay type: cell-based; conditions: for NTCP inhibitor or non-inhibitor: inhibitor = Ki less than 300 μM; for potency estimated from few doses: read-out: Estimated Ki for NTCP
Cytotoxicity study = conditions: dog, ASBT-MDCK cells
human NTCP [3] = biological target: T1, human NTCP; assay: Taurocholate uptake kinetics into NTCP-HEK293 cells; conditions: Figure S1

Row | Compound | Ki (human NTCP [1]) [µM] | potency estimated from few doses (human ASBT) [µM] | NTCP inhibitor or non-inhibitor (human NTCP [2]) | potency estimated from few doses (human NTCP [2]) [µM] | taurocholate uptake into ASBT-MDCK cells, percent of control (human ASBT) | other results
1 | C[C@H]1C[C@@H]2[C@H]([C@@H](O)C[C@@]3(C)[C@H]2CC[C@]3(O)C(=O)CO)[C@@]2(C)C=CC(=O)C=C12 [Methylprednisolone] | 238 ± 33 | > 100 | NTCP inhibitors; also recorded: inhibited NTCP but not ASBT | 255 ± 53 |  | ASBT inhibitor or non-inhibitor (human ASBT): inhibited NTCP but not ASBT; fold more potent NTCP inhibition than ASBT inhibition (human NTCP [2]; Ki values of Table 4 and 5): ≥ 10 fold
2 | COc1cc2nc(N3CCN(C(=O)C4COc5ccccc5O4)CC3)nc(N)c2cc1OC (centres unmarked) [Doxazosin] | 35.3 ± 5.4 | 20.9 ± 7.3 | inhibited NTCP | 41.2 ± 7.1 |  | 
3 | CC(=O)N1CCN(c2ccc(OCC3COC(Cn4ccnc4)(c4ccc(Cl)cc4Cl)O3)cc2)CC1 (centres unmarked) [Ketoconazole] | 202 | 61.9 ± 27 | NTCP inhibitors | 98.8 ± 12 | below 50% | ASBT inhibitor or non-inhibitor (human ASBT): ASBT inhibitors
4 | COc1ccc2c(c1)c(CC(=O)O)c(C)n2C(=O)c1ccc(Cl)cc1 [Indomethacin] | 173 ± 24 | 31.3 ± 7.7 | NTCP inhibitors | 141 ± 14 | below 50% | 
5 | CC(C)OC(=O)C(C)(C)Oc1ccc(C(=O)c2ccc(Cl)cc2)cc1 [Fenofibrate] | 129 ± 20 | 121 ± 33 | inhibited NTCP | 211 ± 60 | 64.7% | viability at 10 min, 100 μM (Cytotoxicity study): 79.2%
6 | CCc1nn(CCCN2CCN(c3cccc(Cl)c3)CC2)c(=O)n1CCOc1ccccc1 [Nefazodone] | 126 ± 20 | 30.8 ± 3.6 | NTCP inhibitors | 100 ± 8 | below 50% | 
7 | CN1CCN(CCCN2c3ccccc3Sc3ccc(Cl)cc32)CC1 [Prochlorperazine] | 209 ± 27 | 27.4 ± 4.6 | NTCP inhibitors | 280 ± 37 | below 50% | 
8 | C[C@H](CCC(=O)NCCS(=O)(=O)O)[C@H]1CC[C@H]2[C@@H]3[C@H](O)C[C@@H]4C[C@H](O)CC[C@]4(C)[C@H]3C[C@H](O)[C@]12C [taurocholate, Taurocholate] |  |  |  |  |  | Kt (taurocholate Michaelis-Menten constant) (human NTCP [3]): 22.7(±3.4) μM; Vmax (human NTCP [3]): 1.80(±0.03) pmol/sec/cm^2; passive permeability Pp (human NTCP [3]): 1.27(±0.03)x10^−6 cm/sec
9 | CCCC1O[C@@H]2C[C@H]3[C@@H]4CCC5=CC(=O)C=C[C@]5(C)[C@H]4[C@@H](O)C[C@]3(C)[C@]2(C(=O)CO)O1 (some centres unmarked) [Budesonide] | 220 ± 45 | 62.6 ± 15 | inhibited NTCP | 264 ± 94 | below 50% | 
10 | CC(C)[C@H]1CC[C@H](C(=O)N[C@H](Cc2ccccc2)C(=O)O)CC1 [Nateglinide] | 200 ± 32 | 77 ± 16 | inhibited NTCP | 111 ± 7 |  | 
11 | CCCCC(=O)N(Cc1ccc(-c2ccccc2-c2nnn[nH]2)cc1)[C@H](C(=O)O)C(C)C [Valsartan] |  | 1260 | did not inhibit NTCP | > 100 |  | viability at 10 min, 100 μM (Cytotoxicity study): 77.9%
12 | CCOc1ccc2ccccc2c1C(=O)N[C@@H]1C(=O)N2[C@@H]1SC(C)(C)[C@@H]2C(=O)O [Nafcillin] |  | > 100 |  | 2010 ± 5840 |  | 
13 | O=C1[C@H](CC[C@H](O)c2ccc(F)cc2)[C@@H](c2ccc(O)cc2)N1c1ccc(F)cc1 [Ezetimibe] |  | 4.61 ± 0.88 | NTCP inhibitors | 53.8 ± 3.3 | below 50% | 
14 | Cc1ncc([N+](=O)[O-])n1CCO [Metronidazole] |  | 223 ± 90 |  | 369 ± 83 |  | ASBT inhibitor or non-inhibitor (human ASBT): ASBT inhibitors
15 | Cc1ccc(NC(=O)c2ccc(CN3CCN(C)CC3)cc2)cc1Nc1nccc(-c2cccnc2)n1 [Imatinib] |  | 177 ± 32 |  | 673 ± 130 |  | 
16 | Clc1ccc(COC(Cn2ccnc2)c2ccc(Cl)cc2Cl)cc1 (centres unmarked) [Econazole] |  | 18.5 ± 3.9 |  | 416 ± 624 | below 50% | fold more potent ASBT inhibition than NTCP inhibition (human ASBT; Ki values of Table 4 and 5): ≥ 10 fold; ASBT inhibitor or non-inhibitor (human ASBT): ASBT inhibitors
17 | CC(C(=O)O)c1cccc(C(=O)c2ccccc2)c1 (centres unmarked) [Ketoprofen] | 321 ± 57 | 480 ± 609 |  | 361 ± 178 |  | 
18 | Nc1ccc(S(N)(=O)=O)cc1 [Sulfanilamide] |  | 194 ± 24 | inhibited NTCP | 250 ± 50 |  | 
19 | CCOc1nc2cccc(C(=O)O)c2n1Cc1ccc(-c2ccccc2-c2nnn[nH]2)cc1 [Candesartan] | 233 ± 37 | 67.6 ± 30 | inhibited NTCP | 145 ± 44 |  | 
20 | COc1ccc([C@@H]2Sc3ccccc3N(CCN(C)C)C(=O)[C@@H]2OC(C)=O)cc1 [Diltiazem] | 599 ± 212 | 237 ± 21 |  | 460 ± 232 |  | 
21 | COC(=O)C1=C(C)NC(C)=C(C(=O)OC(C)C)C1c1cccc2nonc12 (centres unmarked) [Isradipine] |  | 17.9 ± 2.3 | NTCP inhibitors | 99.5 ± 14 | below 50% | 
22 | CCCN(CCC)S(=O)(=O)c1ccc(C(=O)O)cc1 [Probenecid] | 544 ± 217 | 425 ± 155 |  | 435 ± 114 |  | 
